{"source": "patent US5358947A", "about": "“Angiotensin II receptor blocking 2,3-substituted pyrazolo[1,5-a]-1,3,5-triazin-4(3H)-ones” (American Cyanamid Company, priority 1993, dated 1994)", "tested_on": "ANGIOTENSIN II (AII) VASOPRESSOR RESPONSE", "assay": "AII Challenge: angiotensin II (AII) vasopressor response in conscious rats", "type": "in vivo", "design": "Response After AII / Change / Average Change: unit not given here", "settings": "10 mg/kg i.v.; for Change / Response After AII / Control Before AII: individual rat; for Control Before AII: in mmHg (unit assumed); for % Inhibition / Average Change: n = 2", "from_the_text": "By administering a compound of this invention to a rat, and then challenging with angiotensin II, a blockage of the vasopressor response is realized.\nConscious Male Okamoto-Aoki SHR, 16-20 weeks old, weighing approximately 330 g are purchased from Charles River Labs (Wilmington, Mass.). Conscious rats are restrained in a supine position with elastic tape. The area at the base of the tail is locally anesthetized by subcutaneous infiltration with 2% procaine. The ventral caudal artery and vein are isolated, and a cannula made of polyethylene (PE) 10-20 tubing (fused together by heat) is passed into the lower abdominal aorta and vena cava, respectively. The cannula is secured, heparinized (1,000 I.U./ml), sealed and the wound is closed. The animals are placed in plastic restraining cages in an upright position. The cannula is attached to s Statham P23Db pressure transducer, and pulsatile blood pressure is recorded to 10-15 minutes with a Gould Brush recorder. (Chan et al., (Drug Development Res., 18:75-94, 1989).\nAngiotensin II (human sequence, Sigma Chem. Co., St. Louis, Mo.) of 0.05 and 0.1 ug/kg i.v. is injected into all rats (predosing response.). Then a test compound, vehicle or a known angiotensin II antagonist is administered i.v., i.p. or orally to each set of rats. The two doses of angiotensin II are given to each rat again at 30, 60, 90, 120, 180, 240 and 300 minutes post dosing the compound or vehicle. The vasopressor response of angiotensin II by a compound is calculated using the vasopressor response (increase in systolic blood pressure) of angiotensin II of each rat predosing the compound as 100%. A compound is considered active if at 30 mg/kg i.v. it antagonized at least 50% of the response.", "key": {"[1]": {"settings": "AII 0.05 mcg/kg, 30 min post dose"}, "[2]": {"settings": "AII 0.05 mcg/kg, 30 min post dose, listed as Ex. 11"}, "[3]": {"settings": "AII 0.05 mcg/kg, 60 min post dose, listed as Ex. 11"}, "[4]": {"settings": "AII 0.05 mcg/kg, 60 min post dose"}, "[5]": {"settings": "AII 0.05 mcg/kg, 90 min post dose"}, "[6]": {"settings": "AII 0.05 mcg/kg, 90 min post dose, listed as Ex. 11"}, "[7]": {"settings": "AII 0.05 mcg/kg, 120 min post dose"}, "[8]": {"settings": "AII 0.05 mcg/kg, 120 min post dose, listed as Ex. 11"}, "[9]": {"settings": "AII 0.05 mcg/kg, 180 min post dose"}, "[10]": {"settings": "AII 0.05 mcg/kg, 180 min post dose, listed as Ex. 11"}, "[11]": {"settings": "AII 0.05 mcg/kg, 240 min post dose"}, "[12]": {"settings": "AII 0.05 mcg/kg, 240 min post dose, listed as Ex. 11"}, "[13]": {"settings": "AII 0.05 mcg/kg, 300 min post dose"}, "[14]": {"settings": "AII 0.05 mcg/kg, 300 min post dose, listed as Ex. 11"}, "[15]": {"settings": "AII 0.1 mcg/kg, 30 min post dose"}, "[16]": {"settings": "AII 0.1 mcg/kg, 30 min post dose, listed as Ex. 11"}, "[17]": {"settings": "AII 0.1 mcg/kg, 60 min post dose"}, "[18]": {"settings": "AII 0.1 mcg/kg, 90 min post dose"}, "[19]": {"settings": "AII 0.1 mcg/kg, 90 min post dose, listed as Ex. 11"}, "[20]": {"settings": "AII 0.1 mcg/kg, 120 min post dose"}, "[21]": {"settings": "AII 0.1 mcg/kg, 120 min post dose, listed as Ex. 11"}, "[22]": {"settings": "AII 0.1 mcg/kg, 180 min post dose"}, "[23]": {"settings": "AII 0.1 mcg/kg, 240 min post dose"}, "[24]": {"settings": "AII 0.1 mcg/kg, 240 min post dose, listed as Ex. 11"}, "[25]": {"settings": "AII 0.1 mcg/kg, 300 min post dose"}, "[26]": {"settings": "AII 0.1 mcg/kg, 300 min post dose, listed as Ex. 11"}}, "note": "“And” between values parts separate entries of the source, which are not always exact repeats. Equal entries are not always repeated.", "data": [{"smiles": "CCCCc1nc2cc(-c3ccco3)nn2c(=O)n1Cc1ccc(-c2ccccc2-c2nnn[nH]2)cc1", "note": "[Example 11, 2-Butyl-7-(2-furanyl)-3-[[2'-(1H-tetrazol-5-yl)[1,1'-biphenyl]-4-yl]methyl]pyrazolo[1,5-a]-1,3,5-triazin-4(3H)-one]", "values": [{"measurement": "Change", "setting": "[1]", "value": 0}, {"measurement": "Response After AII", "setting": "[1]", "value": 200}, {"measurement": "Response After AII", "setting": "[2]", "value": 205}, {"measurement": "Control Before AII", "setting": "[2]", "value": "200 and 205"}, {"measurement": "% Inhibition", "setting": "[1]", "value": 100, "unit": "%"}, {"measurement": "Average Change", "setting": "[1]", "value": 0}, {"measurement": "Change", "setting": "[3]", "value": "13 and 5"}, {"measurement": "Response After AII", "setting": "[3]", "value": "198 and 200"}, {"measurement": "Control Before AII", "setting": "[3]", "value": "185 and 195"}, {"measurement": "% Inhibition", "setting": "[4]", "value": 76, "unit": "%"}, {"measurement": "Average Change", "setting": "[4]", "value": 9}, {"measurement": "Response After AII", "setting": "[5]", "value": 200}, {"measurement": "Change", "setting": "[6]", "value": "10 and 15"}, {"measurement": "Control Before AII", "setting": "[6]", "value": "190 and 185"}, {"measurement": "% Inhibition", "setting": "[5]", "value": 67, "unit": "%"}, {"measurement": "Average Change", "setting": "[5]", "value": 12.5}, {"measurement": "Response After AII", "setting": "[7]", "value": 195}, {"measurement": "Control Before AII", "setting": "[7]", "value": 185}, {"measurement": "Change", "setting": "[8]", "value": "20 and 10"}, {"measurement": "Response After AII", "setting": "[8]", "value": 205}, {"measurement": "% Inhibition", "setting": "[7]", "value": 60, "unit": "%"}, {"measurement": "Average Change", "setting": "[7]", "value": 15}, {"measurement": "Response After AII", "setting": "[9]", "value": 195}, {"measurement": "Control Before AII", "setting": "[9]", "value": 185}, {"measurement": "Change", "setting": "[10]", "value": "10 and 20"}, {"measurement": "Response After AII", "setting": "[10]", "value": 205}, {"measurement": "% Inhibition", "setting": "[9]", "value": 60, "unit": "%"}, {"measurement": "Average Change", "setting": "[9]", "value": 15}, {"measurement": "Control Before AII", "setting": "[11]", "value": 185}, {"measurement": "Change", "setting": "[12]", "value": "25 and 15"}, {"measurement": "Response After AII", "setting": "[12]", "value": "210 and 200"}, {"measurement": "% Inhibition", "setting": "[11]", "value": 47, "unit": "%"}, {"measurement": "Average Change", "setting": "[11]", "value": 20}, {"measurement": "Control Before AII", "setting": "[13]", "value": 185}, {"measurement": "Change", "setting": "[14]", "value": "30 and 20"}, {"measurement": "Response After AII", "setting": "[14]", "value": "215 and 205"}, {"measurement": "% Inhibition", "setting": "[13]", "value": 33, "unit": "%"}, {"measurement": "Average Change", "setting": "[13]", "value": 25}, {"measurement": "Response After AII", "setting": "[15]", "value": 192}, {"measurement": "Change", "setting": "[16]", "value": "2 and 0"}, {"measurement": "Response After AII", "setting": "[16]", "value": 205}, {"measurement": "Control Before AII", "setting": "[16]", "value": "190 and 205"}, {"measurement": "% Inhibition", "setting": "[15]", "value": 98, "unit": "%"}, {"measurement": "Average Change", "setting": "[15]", "value": 1}, {"measurement": "Change", "setting": "[17]", "value": 10}, {"measurement": "Response After AII", "setting": "[17]", "value": 205}, {"measurement": "Control Before AII", "setting": "[17]", "value": 195}, {"measurement": "% Inhibition", "setting": "[17]", "value": 79, "unit": "%"}, {"measurement": "Average Change", "setting": "[17]", "value": 10}, {"measurement": "Response After AII", "setting": "[18]", "value": 210}, {"measurement": "Control Before AII", "setting": "[18]", "value": 190}, {"measurement": "Change", "setting": "[19]", "value": "20 and 15"}, {"measurement": "Response After AII", "setting": "[19]", "value": 205}, {"measurement": "% Inhibition", "setting": "[18]", "value": 63, "unit": "%"}, {"measurement": "Average Change", "setting": "[18]", "value": 17.5}, {"measurement": "Response After AII", "setting": "[20]", "value": 200}, {"measurement": "Control Before AII", "setting": "[20]", "value": 185}, {"measurement": "Change", "setting": "[21]", "value": "20 and 15"}, {"measurement": "Response After AII", "setting": "[21]", "value": 205}, {"measurement": "% Inhibition", "setting": "[20]", "value": 63, "unit": "%"}, {"measurement": "Average Change", "setting": "[20]", "value": 17.5}, {"measurement": "Change", "setting": "[22]", "value": 25}, {"measurement": "Response After AII", "setting": "[22]", "value": 210}, {"measurement": "Control Before AII", "setting": "[22]", "value": 185}, {"measurement": "% Inhibition", "setting": "[22]", "value": 47, "unit": "%"}, {"measurement": "Average Change", "setting": "[22]", "value": 25}, {"measurement": "Response After AII", "setting": "[23]", "value": 210}, {"measurement": "Control Before AII", "setting": "[23]", "value": 185}, {"measurement": "Change", "setting": "[24]", "value": "30 and 25"}, {"measurement": "Response After AII", "setting": "[24]", "value": 205}, {"measurement": "Control Before AII", "setting": "[24]", "value": 175}, {"measurement": "% Inhibition", "setting": "[23]", "value": 42, "unit": "%"}, {"measurement": "Average Change", "setting": "[23]", "value": 27.5}, {"measurement": "Response After AII", "setting": "[25]", "value": 210}, {"measurement": "Control Before AII", "setting": "[25]", "value": 185}, {"measurement": "Change", "setting": "[26]", "value": "25 and 30"}, {"measurement": "Response After AII", "setting": "[26]", "value": 215}, {"measurement": "% Inhibition", "setting": "[25]", "value": 42, "unit": "%"}, {"measurement": "Average Change", "setting": "[25]", "value": 27.5}]}]}
